Reference: ChEMBL document CHEMBL1135364, “Synthesis and structure-activity relationships of oxime neurokinin antagonists: discovery of potent arylamides” (Bioorg Med Chem Lett, 2002)

Experiments:
[1] = target: T1, Substance-K receptor (Homo sapiens, UniProt P21452); assay: Binding affinity test against Neurokinin 2 (NK2) receptor
T1 sequence (P21452 whole entry): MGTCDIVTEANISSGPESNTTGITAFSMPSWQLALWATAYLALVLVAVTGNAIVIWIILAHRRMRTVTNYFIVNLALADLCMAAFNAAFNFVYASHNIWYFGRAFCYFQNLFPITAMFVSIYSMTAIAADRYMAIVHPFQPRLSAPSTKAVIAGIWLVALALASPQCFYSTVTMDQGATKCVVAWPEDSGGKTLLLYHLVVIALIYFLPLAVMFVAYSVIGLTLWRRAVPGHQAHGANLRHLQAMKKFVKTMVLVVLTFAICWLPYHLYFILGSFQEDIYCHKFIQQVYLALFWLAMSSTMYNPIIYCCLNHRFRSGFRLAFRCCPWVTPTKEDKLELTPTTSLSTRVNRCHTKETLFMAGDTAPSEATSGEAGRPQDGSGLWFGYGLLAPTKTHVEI

[2] = target: T2, Substance-P receptor (Homo sapiens, UniProt P25103); assay: Tested for binding affinity against neurokinin 1 (NK1) receptor
T2 sequence (P25103 whole entry): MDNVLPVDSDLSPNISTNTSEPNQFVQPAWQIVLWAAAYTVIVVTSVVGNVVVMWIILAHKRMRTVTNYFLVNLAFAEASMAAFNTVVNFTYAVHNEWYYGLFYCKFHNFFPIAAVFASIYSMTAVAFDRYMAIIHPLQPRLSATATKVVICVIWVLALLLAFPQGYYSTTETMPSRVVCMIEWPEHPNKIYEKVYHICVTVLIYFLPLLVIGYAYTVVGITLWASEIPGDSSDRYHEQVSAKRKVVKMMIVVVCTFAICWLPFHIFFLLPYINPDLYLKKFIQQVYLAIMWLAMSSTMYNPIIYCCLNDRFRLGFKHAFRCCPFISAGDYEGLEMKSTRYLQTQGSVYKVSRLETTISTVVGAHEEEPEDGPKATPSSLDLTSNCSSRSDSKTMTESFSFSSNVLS

[3] = target: T3, Substance-K receptor (Homo sapiens) (UniProt P21452); assay: Tested for binding affinity of compound against Neurokinin 2 (NK2) receptor at 1 uM
T3 sequence (whole entry): T1 sequence (P21452 whole entry)

[4] = target: T2, Substance-P receptor; assay: Affinity for human Neurokinin 1 (NK1) receptor expressed in CHO cells at 1 uM; format: cell-based
[5] = target: T1, Substance-K receptor; assay: Tested for binding affinity of compound against Tachykinin receptor 2

Ki [1] | Ki [2] | Compound | also measured
– | 81 nM | CO/N=C(\COc1cc(C(F)(F)F)cc(C(F)(F)F)c1)C(CCN1CCC(O)(c2ccccc2)CC1)c1ccc(Cl)c(Cl)c1 (stereo unspecified) | inhibition [3]: 31%
130 nM | – | CO/N=C(\COCc1cc(C(C)(C)C)cc(C(C)(C)C)c1)C(CCN1CCC(O)(c2ccccc2)CC1)c1ccc(Cl)c(Cl)c1 (stereo unspecified) | inhibition [4]: 19%
– | 23 nM | CO/N=C(\CCc1cc(C(F)(F)F)cc(C(F)(F)F)c1)C(CCN1CCC(O)(c2ccccc2)CC1)c1ccc(Cl)c(Cl)c1 (stereo unspecified) | inhibition [3]: 51%
10 nM | – | CO/N=C(\COCc1cc(F)cc(C(F)(F)F)c1)C(CCN1CCC(O)(c2ccccc2)CC1)c1ccc(Cl)c(Cl)c1 (stereo unspecified) | –
332 nM | 92 nM | CO/N=C(\CCCc1cc(C(F)(F)F)cc(C(F)(F)F)c1)C(CCN1CCC(O)(c2ccccc2)CC1)c1ccc(Cl)c(Cl)c1 (stereo unspecified) | –
2 nM | 5 nM | CO/N=C(\CN(C)C(=O)c1cc(OC)cc(OC)c1)C(CCN1CCC(O)(c2ccccc2)CC1)c1ccc(Cl)c(Cl)c1 (stereo unspecified) | –
6 nM | – | CO/N=C(\CN(C)C(=O)c1cc(C)nc(C)c1)C(CCN1CCC(O)(c2ccccc2)CC1)c1ccc(Cl)c(Cl)c1 (stereo unspecified) | –
22 nM | 42 nM | CO/N=C(\CN(C)Cc1cc(C(F)(F)F)cc(C(F)(F)F)c1)C(CCN1CCC(O)(c2ccccc2)CC1)c1ccc(Cl)c(Cl)c1 (stereo unspecified) | –
4 nM | 2 nM | CO/N=C(\CN(C)C(=O)c1cc(Cl)cc(Cl)c1)C(CCN1CCC(O)(c2ccccc2)CC1)c1ccc(Cl)c(Cl)c1 (stereo unspecified) | –
167 nM | 6 nM | CO/N=C(\C(=O)N(C)Cc1cc(C(F)(F)F)cc(C(F)(F)F)c1)C(CCN1CCC(O)(c2ccccc2)CC1)c1ccc(Cl)c(Cl)c1 (stereo unspecified) | –
286 nM | 435 nM | CO/N=C(\CN(C)S(=O)(=O)c1cc(C(F)(F)F)cc(C(F)(F)F)c1)C(CCN1CCC(O)(c2ccccc2)CC1)c1ccc(Cl)c(Cl)c1 (stereo unspecified) | –
35 nM | 32 nM | CO/N=C(\COC(=O)Nc1cc(C(F)(F)F)cc(C(F)(F)F)c1)C(CCN1CCC(O)(c2ccccc2)CC1)c1ccc(Cl)c(Cl)c1 (stereo unspecified) | –
118 nM | 39 nM | CO/N=C(\COCCc1cc(C(F)(F)F)cc(C(F)(F)F)c1)C(CCN1CCC(O)(c2ccccc2)CC1)c1ccc(Cl)c(Cl)c1 (stereo unspecified) | –
8 nM | 5 nM | CO/N=C(\CN(C)C(=O)Nc1cc(C(F)(F)F)cc(C(F)(F)F)c1)C(CCN1CCC(O)(c2ccccc2)CC1)c1ccc(Cl)c(Cl)c1 (stereo unspecified) | –
157 nM | 75 nM | CO/N=C(\C(C)OCc1cc(C(F)(F)F)cc(C(F)(F)F)c1)C(CCN1CCC(O)(c2ccccc2)CC1)c1ccc(Cl)c(Cl)c1 (stereo unspecified) | –
130 nM | 50 nM | CO/N=C(\CNCc1cc(C(F)(F)F)cc(C(F)(F)F)c1)C(CCN1CCC(O)(c2ccccc2)CC1)c1ccc(Cl)c(Cl)c1 (stereo unspecified) | –
100 nM | – | CO/N=C(\CO/C=C/c1cc(C(F)(F)F)cc(C(F)(F)F)c1)C(CCN1CCC(O)(c2ccccc2)CC1)c1ccc(Cl)c(Cl)c1 (stereo unspecified) | inhibition [4]: 20%
20 nM | – | CO/N=C(\COC/C=C/c1cc(C(F)(F)F)cc(C(F)(F)F)c1)C(CCN1CCC(O)(c2ccccc2)CC1)c1ccc(Cl)c(Cl)c1 (stereo unspecified) | inhibition [4]: 36%
4 nM | 7 nM | CO/N=C(\CN(C)C(=O)c1cncc(Br)c1)C(CCN1CCC(O)(c2ccccc2)CC1)c1ccc(Cl)c(Cl)c1 (stereo unspecified) | –
2 nM | 1 nM | CO/N=C(\CN(C)C(=O)c1cc(C)cc(C)c1)C(CCN1CCC(O)(c2ccccc2)CC1)c1ccc(Cl)c(Cl)c1 (stereo unspecified) | –
1 nM | 2 nM | CO/N=C(\CN(C)C(=O)c1cc(C)nc(N(C)C)c1)C(CCN1CCC(O)(c2ccccc2)CC1)c1ccc(Cl)c(Cl)c1 (stereo unspecified) | –
2 nM | – | CO/N=C(\CNC(=O)c1cc(C(F)(F)F)cc(C(F)(F)F)c1)C(CCN1CCC(O)(c2ccccc2)CC1)c1ccc(Cl)c(Cl)c1 (stereo unspecified) | –
8 nM | – | CO/N=C(\COCc1cc(C)cc(C)c1)C(CCN1CCC(O)(c2ccccc2)CC1)c1ccc(Cl)c(Cl)c1 (stereo unspecified) | –
2 nM | – | CO/N=C(\CN(C)C(=O)c1ccc(C)s1)C(CCN1CCC(O)(c2ccccc2)CC1)c1ccc(Cl)c(Cl)c1 (stereo unspecified) | –
42 nM | – | CO/N=C(\COCc1cc(F)cc(F)c1)C(CCN1CCC(O)(c2ccccc2)CC1)c1ccc(Cl)c(Cl)c1 (stereo unspecified) | –
25 nM | 168 nM | CO/N=C(\COC(=O)c1cc(C(F)(F)F)cc(C(F)(F)F)c1)C(CCN1CCC(O)(c2ccccc2)CC1)c1ccc(Cl)c(Cl)c1 (stereo unspecified) | –

The next lines start with the compound.

Compound | Ki [1] | Ki [2] | also measured
CO/N=C(\CN(C)C(=O)c1ccc(N(C)C)c2ccccc12)C(CCN1CCC(O)(c2ccccc2)CC1)c1ccc(Cl)c(Cl)c1 (stereo unspecified) | 7 nM | – | –
CO/N=C(\CN(C)C(=O)c1cc(OC)c(OC)c(OC)c1)C(CCN1CCC(O)(c2ccccc2)CC1)c1ccc(Cl)c(Cl)c1 (stereo unspecified) | 3 nM | – | –
CO/N=C(\CN(C)C(=O)c1cc(C)nc(-c2cccs2)c1)C(CCN1CCC(O)(c2ccccc2)CC1)c1ccc(Cl)c(Cl)c1 (stereo unspecified) | 6 nM | 2 nM | –
CO/N=C(\COCc1ccc2nonc2c1)C(CCN1CCC(O)(c2ccccc2)CC1)c1ccc(Cl)c(Cl)c1 (stereo unspecified) | 17 nM | – | inhibition [4]: 29%
CO/N=C(/COCc1cc(C(F)(F)F)cc(C(F)(F)F)c1)C(CCN1CCC(O)(c2ccccc2)CC1)c1ccc(Cl)c(Cl)c1 (stereo unspecified) | – | – | Ki [5]: 21 nM
CO/N=C(\COCc1ccc(F)c2ccccc12)C(CCN1CCC(O)(c2ccccc2)CC1)c1ccc(Cl)c(Cl)c1 (stereo unspecified) | 21 nM | – | –
CO/N=C(\COCc1cc(OC)c(OC)c(OC)c1)C(CCN1CCC(O)(c2ccccc2)CC1)c1ccc(Cl)c(Cl)c1 (stereo unspecified) | 28 nM | – | –
CO/N=C(\COCC1CCCCC1)C(CCN1CCC(O)(c2ccccc2)CC1)c1ccc(Cl)c(Cl)c1 (stereo unspecified) | 13 nM | – | inhibition [4]: 21%
CO/N=C(\COCc1ccccc1C)C(CCN1CCC(O)(c2ccccc2)CC1)c1ccc(Cl)c(Cl)c1 (stereo unspecified) | 136 nM | – | inhibition [4]: 34%
CO/N=C(\COCc1ccc2ccc(C(F)(F)F)nc2c1)C(CCN1CCC(O)(c2ccccc2)CC1)c1ccc(Cl)c(Cl)c1 (stereo unspecified) | 20 nM | – | inhibition [4]: 23%
CO/N=C(\COCc1ccc(C)cc1)C(CCN1CCC(O)(c2ccccc2)CC1)c1ccc(Cl)c(Cl)c1 (stereo unspecified) | 9 nM | – | inhibition [4]: 48%
CO/N=C(\COCc1ccccc1)C(CCN1CCC(O)(c2ccccc2)CC1)c1ccc(Cl)c(Cl)c1 (stereo unspecified) | 40 nM | – | inhibition [4]: 33%
CO/N=C(\COCc1ccc2ccccc2c1)C(CCN1CCC(O)(c2ccccc2)CC1)c1ccc(Cl)c(Cl)c1 (stereo unspecified) | 12 nM | – | inhibition [4]: 37%
CO/N=C(\COCc1cc(OC)cc(OC)c1)C(CCN1CCC(O)(c2ccccc2)CC1)c1ccc(Cl)c(Cl)c1 (stereo unspecified) | 18 nM | – | –
CO/N=C(\CNC(=O)c1ccccc1OC)C(CCN1CCC(O)(c2ccccc2)CC1)c1ccc(Cl)c(Cl)c1 (stereo unspecified) | 54 nM | – | –
CO/N=C(\CN(C)C(=O)c1cc(C(F)(F)F)cc(C(F)(F)F)c1)C(CCN1CCC(O)(c2ccccc2)CC1)c1ccc(Cl)c(Cl)c1 (stereo unspecified) | 9 nM | 4 nM | –
CO/N=C(\COCc1ccc(-c2ccccc2)cc1)C(CCN1CCC(O)(c2ccccc2)CC1)c1ccc(Cl)c(Cl)c1 (stereo unspecified) | 38 nM | – | inhibition [4]: 2%
CO/N=C(\CN(C)C(=O)Oc1cc(C(F)(F)F)cc(C(F)(F)F)c1)C(CCN1CCC(O)(c2ccccc2)CC1)c1ccc(Cl)c(Cl)c1 (stereo unspecified) | 11 nM | 6 nM | –
CO/N=C(\COCc1noc(C(C)(C)C)n1)C(CCN1CCC(O)(c2ccccc2)CC1)c1ccc(Cl)c(Cl)c1 (stereo unspecified) | 1 nM | – | –
CO/N=C(\COCC12CC3CC(CC(C3)C1)C2)C(CCN1CCC(O)(c2ccccc2)CC1)c1ccc(Cl)c(Cl)c1 (stereo unspecified) | 7 nM | – | inhibition [4]: 0%
CO/N=C(\CN(C)C(=O)c1cc(C)nc(N2CCCC2)c1)C(CCN1CCC(O)(c2ccccc2)CC1)c1ccc(Cl)c(Cl)c1 (stereo unspecified) | 3 nM | 2 nM | –
CO/N=C(\COCc1ccc(C(C)(C)C)cc1)C(CCN1CCC(O)(c2ccccc2)CC1)c1ccc(Cl)c(Cl)c1 (stereo unspecified) | 4 nM | – | inhibition [4]: 6%
CO/N=C(\COCc1cc(Br)cc(Br)c1)C(CCN1CCC(O)(c2ccccc2)CC1)c1ccc(Cl)c(Cl)c1 (stereo unspecified) | 15 nM | 10 nM | –
CO/N=C(\CN(C)C(=O)c1cc(OC)c(Br)c(OC)c1)C(CCN1CCC(O)(c2ccccc2)CC1)c1ccc(Cl)c(Cl)c1 (stereo unspecified) | 8 nM | 5 nM | –
CO/N=C(\COCc1ccc2sc(C)nc2c1)C(CCN1CCC(O)(c2ccccc2)CC1)c1ccc(Cl)c(Cl)c1 (stereo unspecified) | 21 nM | – | inhibition [4]: 48%
CO/N=C(\COCc1cc(Cl)cc(Cl)c1)C(CCN1CCC(O)(c2ccccc2)CC1)c1ccc(Cl)c(Cl)c1 (stereo unspecified) | 6 nM | – | –
CO/N=C(\COCc1ccccn1)C(CCN1CCC(O)(c2ccccc2)CC1)c1ccc(Cl)c(Cl)c1 (stereo unspecified) | 43 nM | – | –
CO/N=C(\CN(C)C(=O)c1ccccc1OC)C(CCN1CCC(O)(c2ccccc2)CC1)c1ccc(Cl)c(Cl)c1 (stereo unspecified) | 4 nM | – | –
